In patent US20130280187A1, “Compositions and Methods for Improving the Appearance of Facial Pores” (THE PROCTER & GAMBLE COMPANY, priority 2012, published 2013):
Where “and” joins values, the source holds several entries; their conditions need not be identical. Identical values can stand only once.

Key:
procollagen I = assay: In vitro skin biomarker test, procollagen I ELISA in MatTek human skin equivalent; format: cell-based; conditions: average of cultures, 24 hours after treatment; Glyco-Repair 3% topical, TGF-b 2 ng/mL in media
Experimental: (§1) The model used in the test is a MatTek™ brand human skin equivalent available from the MatTek Corporation, which is a full thickness culture system that emulates normal human skin properties and function. The MatTek™ brand skin model contains a three-dimensional, highly differentiated human epidermis with 8-12 cell layers including basal, spinous, granular and stratum corneum layers. The epidermis is grown above a human dermal fibroblast-containing collagen matrix. The skin model is configured to permit the topical application of test materials to the stratum corneum surface of the model. The skin model cultures are supplied in 24-well plate. Each well of the plate includes a snap-well fitting and the skin culture in a media-supplemented agarose gel.
(§2) Prior to testing, the skin model cultures are examined for visual defects and equilibrated overnight at 37° C., 5% CO2, and 95% RH. The skin cultures were transferred to fresh 24-well plates by removing the snap-well fitting along with the skin culture and placing it in a well of the new plate. […]
(§3) Twenty-four hours after treatment, the skin cultures were removed from the incubator and visually inspected for defects (e.g., to see if media leaked up through the culture insert). […] The supernatant was collected and analyzed with a Micro BCA kit to quantitate protein concentration. […]

hyalauronic acid = assay: In vitro skin biomarker test, hyalauronic acid ELISA in MatTek human skin equivalent; format: cell-based; conditions: 24 hours after treatment, Glyco-Repair 3% topical, TGF-b 2 ng/mL in media
Experimental: as §1, §2, §3

transforming growth factor beta [TGF-b]
Avg Normalized Protein (procollagen I) (procollagen I): 29.8
Avg (normalized protein, hyalauronic acid) (hyalauronic acid; average of cultures): 2.8
HA (hyalauronic acid; single skin cultures): 562 ng/mL and 480 ng/mL and 598 ng/mL and 545 ng/mL and 568 ng/mL
